The results in this text go back to US20230002359A1, “PESTICIDALLY ACTIVE FUSED BICYCLIC HETEROAROMATIC COMPOUNDS” (priority 2019, published 2023).

The structures appear in SMILES notation.

In data set [1] the test system is Chilo suppressalis (Striped Rice Stemborer). The experiment in a line: Example B3: Chilo suppressalis (striped rice stemborer), artificial diet, L2 larvae. The note with it: 144 h, application rate of 200 ppm, 6 days after infestation, L2 larvae, read-out: control in at least one of the three categories (mortality, anti-feedant effect, or growth inhibition). It is filed as in vivo. A digest of the protocol: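 Artificial diet in wells was treated with aqueous test solutions diluted from 10'000 ppm DMSO stocks, dried, then infested with 6-8 L2 larvae per well. Mortality, anti-feeding effect and growth inhibition were scored against untreated samples 6 days after infestation; control means any category exceeds the untreated sample.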

Data set [2] has as its system Myzus persicae (Green Peach Aphid). In words: Example B5: Myzus persicae (green peach aphid) feeding/contact activity, sunflower leaf discs. It is filed as in vivo. The following applies: foliar, 144 h, application rate of 200 ppm, 6 days after infestation. As for the experimental part: Sunflower leaf discs were placed onto agar in a 24-well microtiter plate and sprayed with aqueous test solutions prepared from 10′000 ppm DMSO stock solutions. After drying, the leaf discs were infested with an aphid population of mixed ages. The samples were assessed for mortality 6 days after infestation.

Data set [3] has as its system Euschistus heros (Neotropical Brown Stink Bug). The experiment in a line: Example B2: Euschistus heros (neotropical brown stink bug), soybean leaves sprayed, N2 nymphs. The following applies: 120 h, application rate of 200 ppm, 5 days after infestation, N2 nymphs, read-out: control in at least one of the two categories (mortality or growth inhibition). Format: in vivo. As for the experimental part: Soybean leaves on agar in 24-well microtiter plates were sprayed with aqueous test solutions prepared from 10′000 ppm DMSO stock solutions. After drying the leaves were infested with N2 nymphs. The samples were assessed for mortality and growth inhibition in comparison to untreated samples 5 days after infestation.

Data set [4] concerns Plutella xylostella (Diamond Back Moth). The experiment in a line: Example B4: Plutella xylostella (diamond back moth), artificial diet, eggs, 24-well. It is filed as in vivo. The following applies: 192 h, application rate of 200 ppm, 8 days after infestation, eggs, read-out: control in at least one of the two categories (mortality or growth inhibition). As for the experimental part: 24-well microtiter plates with artificial diet were treated with aqueous test solutions prepared from 10′000 ppm DMSO stock solutions by pipetting. After drying, Plutella eggs were pipetted through a plastic stencil onto a gel blotting paper and the plate was closed with it. The samples were assessed for mortality and growth inhibition in comparison to untreated samples 8 days after infestation.

Data set [5] concerns Spodoptera littoralis (Egyptian Cotton Leaf Worm). In words: Example B7: Spodoptera littoralis (Egyptian cotton leaf worm), cotton leaf discs sprayed, L1 larvae. It is filed as in vivo. The following applies: foliar, 72 h, application rate of 200 ppm, 3 days after infestation, L1 larvae, read-out: control in at least one of the three categories (mortality, anti-feedant effect, or growth inhibition). A digest of the protocol: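 Five L1 larvae per sprayed, dried cotton leaf disc on agar. Activity is counted when mortality, anti-feedant effect or growth inhibition exceeds the untreated sample at day 3.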

For data set [6], the system named is Myzus persicae (Green Peach Aphid). The experiment in a line: Example B6: Myzus persicae (green peach aphid) intrinsic activity, sucrose solution. The following applies: 120 h, test rate of 12 ppm, 5 days after infestation, intrinsic activity, read-out: mortality. Format: in vivo. In a few lines: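 Compounds from 10′000 ppm DMSO stocks were mixed into sucrose solution in 24-well plates sealed with Parafilm. Aphid-infested pea seedlings were set on the membrane and the plate inverted so aphids fed through it. Mortality scored 5 days after infestation.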

The subject of data set [7] is Diabrotica Balteata (Corn Root Worm). The experiment in a line: Example B1: Diabrotica balteata (corn root worm), maize sprouts sprayed, L2 larvae. It is filed as in vivo. The following applies: 96 h, application rate of 200 ppm, 4 days after infestation, L2 larvae, read-out: control in at least one of the two categories (mortality or growth inhibition). A digest of the protocol:
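Maize sprouts on agar were sprayed with aqueous test solutions made from 10′000 ppm DMSO stocks, dried, then infested with 6 to 10 L2 larvae per well. Mortality and growth inhibition were scored against untreated samples 4 days after infestation.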

Regarding `C[C@@H](c1ncnn1-c1ncccn1)N(C)c1c(C#N)cnc2c(C(F)(F)F)cc(C(F)(F)F)cc12`, the melting point is 84 to 86 °C.

The compound `C[C@@H](c1ncnn1-c1ccc(-c2nccs2)cn1)N(C)c1ncnc2c(C(F)(F)F)cc(Cl)cc12` returned a melting point of 142 to 144 °C.

Regarding `C[C@@H](c1ncnn1-c1ncccn1)N(C)c1ncnc2c(C(F)(F)F)cc(C3CC3)cc12`, the melting point lay in the range of 182 to 184 °C.

Turning to `C[C@@H](c1ncnn1-c1ccc(-c2ncon2)cn1)N(C)c1ncnc2c(C(F)(F)F)cc(Cl)cc12`, the melting point fell in the range of 144 to 146 °C.

The compound `CC(c1ncnn1-c1ccc(OC(F)F)cn1)N(C)c1ncnc2c(Cl)cc(C(F)(F)F)cc12` (stereo not drawn) gave a melting point of 102 to 104 °C.

Turning to `CC(c1ncnn1-c1ccc(OC(F)F)cn1)N(C)c1ncnc2c(Br)cc(C(F)(F)F)cc12` (stereo not drawn), the melting point fell in the range of 75 to 77 °C.

As to `CC(c1ncnn1-c1ccc(C#N)cn1)N(C)c1ncnc2c(Cl)c(F)c(Cl)cc12` (stereo not drawn), the melting point fell in the range of 145 to 155 °C.

For the compound `CC(Nc1ncnc2c(C(F)(F)F)cc(Br)cc12)c1ncnn1-c1ccc(F)cn1` (stereo not drawn), the melting point was in the range of 282 to 284 °C.

Turning to `CC(Nc1ncnc2c(Br)cc(C(F)(F)F)cc12)c1ncnn1-c1ccc(Br)cn1` (stereo not drawn), the melting point lay in the range of 280 to 282 °C.

Consider `CC(c1ncnn1-c1ncccn1)N(CC1CC1)c1nc(Cl)nc2c(Cl)cc(C(F)(F)F)cc12` (stereo not drawn), for which the melting point was 81 to 83 °C.

On to `CC(c1nccnc1-c1ccc(C#N)cn1)N(CC1CC1)c1ncnc2c(C(F)(F)F)cc(Br)cc12` (stereo not drawn), for which the melting point is 251 to 253 °C.

`CC(Nc1ncnc2c(C(F)(F)F)cc(Br)cc12)c1ncnn1-c1ccc(Br)cn1` (stereo not drawn) displayed a melting point of 214 to 216 °C.

Regarding `C[C@@H](c1ncnn1-c1ncccn1)N(C)c1ncnc2c(I)cc(C(F)(F)F)cc12` [P.219, 8-iodo-N-methyl-N-[(1S)-1-(2-pyrimidin-2-yl-1,2,4-triazol-3-yl)ethyl]-6-(trifluoromethyl)quinazolin-4-amine], the percent control (mortality, anti-feedant effect or growth inhibition) at 200 ppm in data set [1] and in data set [5] was at least 80% each time. The compound further returned a mortality at 200 ppm in data set [2] of at least 80%. Also, the percent control (mortality or growth inhibition) at 200 ppm in data set [3], in data set [4] and in data set [7] was at least 80% in each case. Besides, the mortality at 12 ppm in data set [6] was at least 80%.

With `CC(c1ncnn1-c1ccc(C#N)cn1)N(C)c1ncnc2c(C(F)(F)F)cc(OC(F)(F)F)cc12` (stereo not drawn) [P.221, 6-[5-[1-[methyl-[6-(trifluoromethoxy)-8-(trifluoromethyl)quinazolin-4-yl]amino]ethyl]-1,2,4-triazol-1-yl]pyridine-3-carbonitrile], the percent control (mortality, anti-feedant effect or growth inhibition) at 200 ppm in data set [1] and in data set [5] was at least 80% each time. In data set [2], the mortality at 200 ppm was at least 80%. For the same compound, the percent control (mortality or growth inhibition) at 200 ppm in data set [3], in data set [4] and in data set [7] was at least 80% in each case. Besides, the mortality at 12 ppm in data set [6] is at least 80%.

For the compound `C[C@@H](c1ncnn1-c1ccc(C#N)cn1)N(C)c1ncnc2c(C(=O)C3CC3)cc(C(F)(F)F)cc12` [P.227, 6-[5-[(1S)-1-[[8-(cyclopropanecarbonyl)-6-(trifluoromethyl)quinazolin-4-yl]-methyl-amino]ethyl]-1,2,4-triazol-1-yl]pyridine-3-carbonitrile], the percent control (mortality, anti-feedant effect or growth inhibition) at 200 ppm in data set [1] and in data set [5] was at least 80% throughout. This compound displayed a mortality at 200 ppm in data set [2] of at least 80%. Besides, the percent control (mortality or growth inhibition) at 200 ppm in data set [3], in data set [4] and in data set [7] was at least 80% throughout. In addition, the mortality at 12 ppm in data set [6] was at least 80%.

For the compound `C[C@@H](c1ncnn1-c1ccc(C#N)cn1)N(C)c1ncnc2c(I)cc(C(F)(F)F)cc12` [P.228, 6-[5-[(1S)-1-[[8-iodo-6-(trifluoromethyl)quinazolin-4-yl]-methyl-amino]ethyl]-1,2,4-triazol-1-yl]pyridine-3-carbonitrile], the percent control (mortality, anti-feedant effect or growth inhibition) at 200 ppm in data set [1] and in data set [5] was at least 80% each time. Further, the mortality at 200 ppm in data set [2] was at least 80%. In addition, the percent control (mortality or growth inhibition) at 200 ppm in data set [3], in data set [4] and in data set [7] was at least 80% throughout. In data set [6], the mortality at 12 ppm is at least 80%.

Turning to `CC(c1ncnn1-c1ncccn1)N(C)c1ncnc2c(OC(F)F)cc(Br)cc12` (stereo not drawn) [P.245, 6-bromo-8-(difluoromethoxy)-N-methyl-N-[1-(2-pyrimidin-2-yl-1,2,4-triazol-3-yl)ethyl]quinazolin-4-amine], the percent control (mortality, anti-feedant effect or growth inhibition) at 200 ppm in data set [1] and in data set [5] was at least 80% each time. The compound also returned a mortality at 200 ppm in data set [2] of at least 80%. The percent control (mortality or growth inhibition) at 200 ppm in data set [3], in data set [4] and in data set [7] was at least 80% throughout. The mortality at 12 ppm in data set [6] was at least 80%.

As for `CC(Nc1ncnc2c(OC(F)(F)F)cc(Br)cc12)c1ncnn1-c1ncccn1` (stereo not drawn) [P.248, 6-bromo-N-[1-(2-pyrimidin-2-yl-1,2,4-triazol-3-yl)ethyl]-8-(trifluoromethoxy)quina-zolin-4-amine], the percent control (mortality, anti-feedant effect or growth inhibition) at 200 ppm in data set [1] and in data set [5] was at least 80% throughout. This compound had a mortality at 200 ppm in data set [2] of at least 80%. Further, the percent control (mortality or growth inhibition) at 200 ppm in data set [3], in data set [4] and in data set [7] was at least 80% throughout. Moreover, the mortality at 12 ppm in data set [6] is at least 80%.

For the compound `C[C@@H](c1ncnn1-c1ccc(C#N)cn1)N(CC1CC1)c1ncnc2c(C(F)(F)F)cc(Cl)cc12` [P.264, 6-[5-[(1S)-1-[[6-chloro-8-(trifluoromethyl)quinazolin-4-yl]-(cyclopropylmethyl)amino]ethyl]-1,2,4-triazol-1-yl]pyridine-3-carbonitrile], the percent control (mortality, anti-feedant effect or growth inhibition) at 200 ppm in data set [1] and in data set [5] was at least 80% in each case. The mortality at 200 ppm in data set [2] is at least 80%. The percent control (mortality or growth inhibition) at 200 ppm in data set [3], in data set [4] and in data set [7] was at least 80% in each case. The mortality at 12 ppm in data set [6] was at least 80%.

For `C[C@@H](c1ncnn1-c1ncccn1)N(CC1CC1)c1ncnc2c(C(F)(F)F)cc(Cl)cc12` [P.265, 6-chloro-N-(cyclopropylmethyl)-N-[(1S)-1-(2-pyrimidin-2-yl-1,2,4-triazol-3-yl)ethyl]-8-(trifluoromethyl)quinazolin-4-amine], the percent control (mortality, anti-feedant effect or growth inhibition) at 200 ppm in data set [1] and in data set [5] was at least 80% throughout. For the same compound, in data set [2], the mortality at 200 ppm was at least 80%. Also, the percent control (mortality or growth inhibition) at 200 ppm in data set [3], in data set [4] and in data set [7] was at least 80% in each case. The mortality at 12 ppm in data set [6] is at least 80%.

As to `C[C@@H](c1ncnn1-c1ccc(C#N)cn1)N(CC1CC1)c1ncnc2c(Cl)cc(C(F)(F)F)cc12` [P.271, 6-[5-[(1S)-1-[[8-chloro-6-(trifluoromethyl)quinazolin-4-yl]-(cyclopropylmethyl)amino]ethyl]-1,2,4-triazol-1-yl]pyridine-3-carbonitrile], the percent control (mortality, anti-feedant effect or growth inhibition) at 200 ppm in data set [1] and in data set [5] was at least 80% throughout. The compound further had a mortality at 200 ppm in data set [2] of at least 80%. For the same compound, the percent control (mortality or growth inhibition) at 200 ppm in data set [3], in data set [4] and in data set [7] was at least 80% in each case. For the same compound, the mortality at 12 ppm in data set [6] is at least 80%.
